Experimental data: patent US12050224B2, “Compounds useful as near-infrared fluorescent probes selectively binding to tau aggregates and method of preparing the same” (KOREA INSTITUTE OF SCIENCE AND TECHNOLOGY, priority 2020, dated 2024)

How the values were obtained:
[1] = Measurement of absorbance and fluorescence of synthesized compound in ethanol; assay type: physicochemical; conditions: 10 μM in ethanol; for λem: Maximum emission wavelength / λex: Maximum excitation wavelength: average of three measurements; for Stokes shift: difference between excitation and emission
Experimental: In order to investigate the optical properties of the newly synthesized compound in the present invention, the absorbance was measured using a V-730 UV-visible spectrophotometer manufactured by JASCO, and fluorescence was measured using a FlexStation 3 multi-mode microplate reader manufactured by Molecular Devices. Absorbance and fluorescence were measured three times at a concentration of 10 μM in ethanol, and the average thereof is shown in Table 1 below. At this time, T807 (AV-1451) as a Tau positron-emission-tomography (PET) tracer and Thioflavin S, which are commercially available to detect tau production in vivo, were used as a control group.

[2] = molecular target: T1, amyloid beta aggregates (Abeta40) (Homo sapiens, UniProt P05067); assay: In vitro binding assay (fluorescence labeling ability) to amyloid beta aggregates; conditions: compound 10 μM, PBS, 30 min incubation
T1 construct: the synthesized Abeta40 (Amyloid Beta 40) peptide was dissolved in PBS; host or cells: synthetic peptide
Experimental: (§1) Experimental Example 2-1: Tau and amyloid beta aggregation induction For amyloid aggregation induction, the synthesized Abeta40 (Amyloid Beta 40) peptide was dissolved in PBS at a concentration of 0.5 mg/ml to induce aggregation for 7 days at 37° C. and 200 rpm with shaking. To induce aggregation of tau proteins, aggregation of Tau-K18 protein (0.5 mg/ml in PBS) purified and isolated from E. coli with heparin (0.1 mg/ml) and DTT (100 μM) was induced at 37° C. and 200 rpm for 7 days under shaking conditions. […] At this time, thioflavin S (Th S), which is known to bind to beta-sheet structures such as tau and amyloid aggregates, was used as a control group (Ex: 430 nm, Em: 480-610 nm). Specifically, in order to determine the labeling ability of newly synthesized compounds to tau aggregate proteins, a 25 μl dilution of a 10 μM labeling substance in PBS and 25 id of a 0.125 mg/ml tau or amyloid pre-aggregate or aggregate diluted in PBS were each incubated for 30 minutes, and then a fluorescence spectrum reaction was measured using a spectrophotometer. Selectivity analysis for tau aggregates and amyloid beta aggregates of the novel synthetic compounds of the present invention was performed as described above, and the resulting in vitro fluorescence changes are summarized in Table 2 and FIG. 1 below.

[3] = molecular target: T2, tau aggregates (Tau-K18 protein) (Homo sapiens, UniProt P10636); assay: In vitro binding assay (fluorescence labeling ability) to tau aggregates; conditions: for SIaβ: selectivity index = fluorescence intensity of probe bound to Tau aggregate / bound to Aβ aggregate / SItaumono: selectivity index, tau aggregate versus tau monomer / FItau: fold increase = fluorescence intensity of probe bound to tau aggregate / probe (free): compound 10 μM; for FItau: fold increase = fluorescence intensity of probe bound to tau aggregate / probe (free): PBS, 30 min incubation; for selectivity for tau aggregates over amyloid aggregates: in vitro screening as fluorescent probes
T2 construct: aggregation of Tau-K18 protein (0.5 mg/ml in PBS) purified and isolated from E. coli; made in house; host or cells: E. coli
Experimental: as §1

[4] = molecular target: bovine serum albumin (BSA) (Bos taurus, UniProt P02769); assay: Measurement of non-specific binding using BSA; conditions: for FIBSA: fold increase = fluorescence intensity of probe bound to BSA / probe (free): compound 10 μM, 0.25 mg/ml BSA, 30 min incubation
Experimental: In order to exclude non-specific binding of the compound to serum, reactivity between the compound and bovine serum albumin (BSA) was further tested. 25 μl of a 10 μM compound was incubated along with 25 μl of 0.25 mg/ml BSA for 30 minutes, and then the fluorescence spectrum reaction was measured using a spectrophotometer. The BSA response was conducted to identify non-selective binding to other proteins in the blood when applied to patients as an imaging agent.

T2 sequence (P10636 561-685 limits assumed): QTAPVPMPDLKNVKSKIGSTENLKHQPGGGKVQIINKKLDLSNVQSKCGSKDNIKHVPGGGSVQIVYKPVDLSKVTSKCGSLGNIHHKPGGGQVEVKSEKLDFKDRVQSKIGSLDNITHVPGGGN
T1 sequence (P05067 672-711 limits assumed): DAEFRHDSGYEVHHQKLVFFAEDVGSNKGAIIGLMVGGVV
Chain of bovine serum albumin (BSA) (P02769 25-607): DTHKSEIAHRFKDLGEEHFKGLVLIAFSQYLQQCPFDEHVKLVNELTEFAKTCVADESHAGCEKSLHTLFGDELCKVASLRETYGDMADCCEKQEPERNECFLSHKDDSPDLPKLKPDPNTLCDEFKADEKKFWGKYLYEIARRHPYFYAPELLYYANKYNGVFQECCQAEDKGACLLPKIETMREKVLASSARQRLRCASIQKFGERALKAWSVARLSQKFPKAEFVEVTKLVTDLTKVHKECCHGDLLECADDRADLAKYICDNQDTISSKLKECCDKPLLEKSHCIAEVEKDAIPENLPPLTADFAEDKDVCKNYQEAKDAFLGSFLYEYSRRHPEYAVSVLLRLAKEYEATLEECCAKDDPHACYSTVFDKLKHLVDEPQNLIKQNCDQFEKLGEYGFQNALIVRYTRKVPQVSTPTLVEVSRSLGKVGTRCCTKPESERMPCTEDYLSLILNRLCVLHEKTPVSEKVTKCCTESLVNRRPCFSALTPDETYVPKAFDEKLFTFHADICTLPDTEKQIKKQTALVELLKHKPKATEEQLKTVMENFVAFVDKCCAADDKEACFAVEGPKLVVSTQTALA

Compound | λem: Maximum emission wavelength [1] | λex: Maximum excitation wavelength [1] | Stokes shift [1] | FIAβ: fold increase = fluorescence intensity of probe bound to Aβ aggregate / probe (free) [2] | SIaβ: selectivity index = fluorescence intensity of probe bound to Tau aggregate / bound to Aβ aggregate [3] | SItaumono: selectivity index, tau aggregate versus tau monomer [3] | FItau: fold increase = fluorescence intensity of probe bound to tau aggregate / probe (free) [3] | FIBSA: fold increase = fluorescence intensity of probe bound to BSA / probe (free) [4] | reactivity to BSA ([4]; in words) | selectivity for tau aggregates over amyloid aggregates [3]
COc1ccc2nc(C(=O)/C=C/C=C/c3ccc(N(C)C)cc3)ccc2c1 [Compound 16c, (2E,4E)-5-(4-(dimethylamino)phenyl)-1-(6-methoxyquinolin-2-yl)penta-2,4-dien-1-one] | 678 nm | 450 nm | 228 nm | 1.43 | 1.2 | 1.7 | 1.71 | 1.29 | – | –
COc1ccc2nc(/C=C/C(=O)c3ccc(C)cc3)ccc2c1 [Compound 13d, (E)-1-(4-tolyl)-3-(6-methoxyquinolin-2-yl)prop-2-en-1-one] | 454 nm | 314 nm | 140 nm | 1.88 | 3.2 | 4.8 | 6.05 | 1.57 | – | –
COc1ccc2nc(/C=C/c3ccncc3)ccc2c1 [Compound 14b, (E)-6-methoxy-2-(2-(pyridin-4-yl)vinyl)quinolone] | 420 nm | 357 nm | 63 nm | 0.57 | 1.4 | 1.3 | 0.79 | 0.61 | – | –
CNc1ccc(/C=C/C=C/c2ccc3cc(OC)ccc3n2)cc1 [Compound 15b, 4-((1E,3E)-4-(6-methoxyquinolin-2-yl)buta-1,3-dien-1-yl)-N-methylanaline] | 602 nm | 400 nm | 202 nm | 0.32 | 2.0 | 3.6 | 0.63 | 0.26 | – | –
Thioflavin S [reference compound] | 451 nm | 347 nm | 104 nm | 19.95 | 0.8 | 4.3 | 15.32 | 7.133 | high reactivity | –
COc1ccc2nc(/C=C/C(=O)c3ccc(N(C)C)cc3)ccc2c1 [Compound 13a, (E)-1-(4-(dimethylamino)phenyl)-3-(6-methoxyquinolin-2-yl)prop-2-en-1-one] | 601 nm | 339 nm | 202 nm | 1.10 | 4.6 | 5.2 | 5.12 | 1.23 | – | 4.6 times
COc1ccc2nc(C(=O)/C=C/C=C/c3ccc(N(C)CCO)cc3)ccc2c1 [Compound 16e] | 658 nm | 436 nm | 222 nm | 1.55 | 2.5 | 3.0 | 3.90 | 1.59 | – | –
COc1ccc2nc(/C=C/C=C/c3ccc(N(C)C)cc3)ccc2c1 [Compound 15c, 4-((1E,3E)-4-(6-methoxyquinolin-2-yl)buta-1,3-dien-1-yl)-N,N-dimethylaniline] | 600 nm | 399 nm | 201 nm | 0.18 | 1.2 | 3.9 | 0.81 | 0.19 | – | –
COc1ccc2nc(C(=O)/C=C/C=C/c3ccc(N(C)C)nc3)ccc2c1 [Compound 16d, (2E,4E)-5-(6-(dimethylamino)pyridin-3-yl)-1-(6-methoxyquinolin-2-yl)penta-2,4-dien-1-one] | 637 nm | 425 nm | 212 nm | 1.10 | 3.5 | 3.9 | 3.82 | 1.26 | – | 3.5 times
COc1ccc2nc(/C=C/C=C/c3cccc([N+](=O)[O-])c3)ccc2c1 [Compound 15g, 6-methoxy-2-((1E,3E)-4-(3-nitrophenyl)buta-1,3-dien-1-yl)quinolone] | 452 nm | 361 nm | 91 nm | 0.58 | 5.8 | 3.7 | 3.42 | 1.33 | – | 5.8 times
Fc1ccc(-c2ccc3c(c2)[nH]c2ccncc23)cn1 [Compound T807, reference compound] | 369 nm | 304 nm | 65 nm | – | – | – | – | – | – | –
COc1ccc2nc(/C=C/C=C/c3ccc([N+](=O)[O-])nc3)ccc2c1 [Compound 15e, 6-methoxy-2-((1E,3E)-4-(6-nitropyridin-3-yl)buta-1,3-dien-1-yl)quinolone] | 587 nm | 389 nm | 198 nm | 0.44 | 2.2 | 4.5 | 0.95 | 0.17 | – | –
COc1ccc2nc(/C=C/C=C/c3cccc(Cl)c3)ccc2c1 [Compound 15f, 6-methoxy-2-((1E,3E)-4-(3-chlorophenyl)buta-1,3-dien-1-yl)quinolone] | 415 nm | 360 nm | 55 nm | 3.27 | 1.2 | 4.4 | 3.91 | 1.75 | – | –
